From US11753407B2, “Compounds for treating spinal muscular atrophy” (PTC Therapeutics, Inc., priority 2012, dated 2023) come the findings set out here.

In assay [1] the test system is Smn protein in SMA patient fibroblast cells (GM03813). In words: Smn protein assay in cultured cells (SMN HTRF). In kind it is cell-based, human. The following applies: SMA patient fibroblast cells, 48 hours; for EC1.5x for Smn protein expression: 7-point concentration curve, SMN HTRF, concentration producing 1.5 times Smn protein vs DMSO vehicle control; for maximum fold (Fold) increase of Smn protein: 7-point concentration data, fold relative to vehicle control. Put shortly: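 Cells were cultured 72 h, seeded at 5,000/well and dosed with seven concentrations (3.16-fold apart) for 48 h. HTRF on lysates, read at 665 and 620 nm, gave blank-corrected ΔF values relative to DMSO. Potency is reported as EC1.5×, efficacy as maximal fold Smn increase.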

Assay [2] deals with SMN2 minigene mRNA (SMN2-A minigene) in HEK293H cells. In words: SMN2 minigene mRNA splicing RT-qPCR assay in cultured cells. In kind it is cell-based, human. The following applies: Homo sapiens, HEK293-H; concentration increasing full length SMN2 mRNA 1.5-fold relative to vehicle-treated cells; HEK293H cells with SMN2-A minigene, 24 hours, 7-point concentration data; read-out: EC1.5x for production of full length SMN2 mRNA. The method, boiled down:
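EC1.5× values derive from a 24 h treatment of SMN2-A minigene HEK293H cells and GAPDH-normalized RT-qPCR of exon 7-included minigene mRNA relative to vehicle-treated cells.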

For the molecule `CCc1nc(C)cn2nc(-c3cc(=O)n4cc(OCCCN(C)C)ccc4n3)cc12` [Compound 834, 7-[3-(dimethylamino)propoxy]-2-(4-ethyl-6-methylpyrazolo[1,5-a]pyrazin-2-yl)-4H-pyrido[1,2-a]pyrimidin-4-one], in assay [1], the “EC1.5x for Smn protein expression” value is on record as “**** (an EC1.5x≤0.3 μM is indicated by four stars (****))” and the “maximum fold (Fold) increase of Smn protein” value (“maximum fold (Fold) increase” below) is on record as “***** (a fold increase >1.65 is indicated by five stars (*****))”. The EC (1.5-fold increase) in assay [2] was less than 0.1 µM.
As to `COc1ccc(-c2cc(=O)n3cc(N4CCNCC4)ccc3n2)cc1OC(F)F` [Compound 99, 2-[3-(difluoromethoxy)-4-methoxyphenyl]-7-(piperazin-1-yl)-4H-pyrido[1,2-a]pyrimidin-4-one], in assay [1], the “EC1.5x for Smn protein expression” value is “*** (an EC1.5× between >0.3 μM and ≤1 μM is indicated by three stars (***))”; the “maximum fold (Fold) increase” value was “**** (a fold increase between >1.5 and ≤1.65 is indicated by four stars (****))”. The EC (1.5-fold increase) in assay [2] lay within 0.3 to 1 µM.
Turning to `Cc1cn2cc(-c3cc(=O)n4cc(N5CCN6CCC[C@@]6(C)C5)ccc4n3)cc(F)c2n1` [Compound 816, 2-(8-fluoro-2-methylimidazo[1,2-a]pyridin-6-yl)-7-[(8aS)-8a-methylhexahydropyrrolo[1,2-a]pyrazin-2(1H)-yl]-4H-pyrido[1,2-a]pyrimidin-4-one], in assay [1], the “EC1.5x for Smn protein expression” value is listed as “**** (an EC1.5x≤0.3 μM is indicated by four stars (****))”; the “maximum fold (Fold) increase” value is “**** (a fold increase between >1.5 and ≤1.65 is indicated by four stars (****))”. The EC (1.5-fold increase) in assay [2] was less than 0.1 µM.
Take `Cc1nc2ccc(-c3cc(=O)n4cc(N5CCN(C)CC5)ccc4n3)cn2n1` [Compound 805, 7-(4-methylpiperazin-1-yl)-2-(2-methyl[1,2,4]triazolo[1,5-a]pyridin-6-yl)-4H-pyrido[1,2-a]pyrimidin-4-one]: in assay [1], the “EC1.5x for Smn protein expression” value is “*** (an EC1.5× between >0.3 μM and ≤1 μM is indicated by three stars (***))”; the “maximum fold (Fold) increase” value is “***** (a fold increase >1.65 is indicated by five stars (*****))”. Also, the EC (1.5-fold increase) in assay [2] is 0.1 to 0.3 µM.
For `CCc1nc(C)cn2nc(-c3cc(=O)n4cc(N5CCN6CCC[C@H]6C5)ccc4n3)cc12` [Compound 812, 2-(4-ethyl-6-methylpyrazolo[1,5-a]pyrazin-2-yl)-7-[(8aS)-hexahydropyrrolo[1,2-a]pyrazin-2(1H)-yl]-4H-pyrido[1,2-a]pyrimidin-4-one], in assay [1], the “EC1.5x for Smn protein expression” value is given as “**** (an EC1.5x≤0.3 μM is indicated by four stars (****))” and the “maximum fold (Fold) increase” value is on record as “***** (a fold increase >1.65 is indicated by five stars (*****))”. In addition, the EC (1.5-fold increase) in assay [2] was less than 0.1 µM.
In the same order, the values of `CCN1CCC(c2cn3c(=O)cc(-c4cc5c(C)nc(C)cn5n4)nc3cn2)CC1` [Compound 504, 2-(4,6-dimethylpyrazolo[1,5-a]pyrazin-2-yl)-7-(1-ethylpiperidin-4-yl)-4H-pyrazino[1,2-a]pyrimidin-4-one] are “**** (an EC1.5x≤0.3 μM is indicated by four stars (****))”, “***** (a fold increase >1.65 is indicated by five stars (*****))” and less than 0.1 µM.
As to `COc1ccc(-c2cc(=O)n3cc(N4CCNC(C)(C)C4)ccc3n2)cc1` [Compound 17, 7-(3,3-dimethylpiperazin-1-yl)-2-(4-methoxyphenyl)-4H-pyrido[1,2-a]pyrimidin-4-one], the “maximum fold (Fold) increase” value in assay [1] is “* (A maximum fold increase of ≤1.2 is indicated by one star (*))”. The EC (1.5-fold increase) in assay [2] lay within 1 to 3 µM.
Take `Cc1cn2cc(-c3cc(=O)n4cc(N5CC[C@H](N(C)C)C5)ccc4n3)cc(C)c2n1` [Compound 828, 7-[(3S)-3-(dimethylamino)pyrrolidin-1-yl]-2-(2,8-dimethylimidazo[1,2-a]pyridin-6-yl)-4H-pyrido[1,2-a]pyrimidin-4-one]: in assay [1], the “EC1.5x for Smn protein expression” value was “**** (an EC1.5x≤0.3 μM is indicated by four stars (****))” and the “maximum fold (Fold) increase” value is reported as “***** (a fold increase >1.65 is indicated by five stars (*****))”. Also, in assay [2], the EC (1.5-fold increase) is less than 0.1 µM.
For the molecule `COc1cccc(-c2cc(=O)n3cc(N4CCCNCC4)ccc3n2)c1` [Compound 27, 7-(1,4-diazepan-1-yl)-2-(3-methoxyphenyl)-4H-pyrido[1,2-a]pyrimidin-4-one], the “maximum fold (Fold) increase” value in assay [1] is “* (A maximum fold increase of ≤1.2 is indicated by one star (*))”. Also, in assay [2], the EC (1.5-fold increase) lay within 3 to 30 µM.
For the molecule `Cc1cn2cc(-c3cc(=O)n4cc(N5CC[C@@H](N(C)C)C5)ccc4n3)cc(C)c2n1` [Compound 827, 7-[(3R)-3-(dimethylamino)pyrrolidin-1-yl]-2-(2,8-dimethylimidazo[1,2-a]pyridin-6-yl)-4H-pyrido[1,2-a]pyrimidin-4-one], in assay [1], the “EC1.5x for Smn protein expression” value was “*** (an EC1.5× between >0.3 μM and ≤1 μM is indicated by three stars (***))”; the “maximum fold (Fold) increase” value was “***** (a fold increase >1.65 is indicated by five stars (*****))”. For the same molecule, the EC (1.5-fold increase) in assay [2] was less than 0.1 µM.
For `COc1ccc(-c2cc(=O)n3cc(NC4CCNCC4)ccc3n2)cc1OC` [Compound 187, 2-(3,4-dimethoxyphenyl)-7-(piperidin-4-ylamino)-4H-pyrido[1,2-a]pyrimidin-4-one], in assay [1], the “maximum fold (Fold) increase” value was “** (a fold increase between >1.2 and ≤1.35 is indicated by two stars (**))”. In addition, the EC (1.5-fold increase) in assay [2] lay within 1 to 3 µM.
For `Cc1nc2ccc(-c3cc(=O)n4cc(N5CCC(N)CC5)ccc4n3)cc2o1` [Compound 242, 7-(4-aminopiperidin-1-yl)-2-(2-methyl-1,3-benzoxazol-6-yl)-4H-pyrido[1,2-a]pyrimidin-4-one], in assay [1], the “EC1.5x for Smn protein expression” value was “**** (an EC1.5x≤0.3 μM is indicated by four stars (****))”; the “maximum fold (Fold) increase” value is “**** (a fold increase between >1.5 and ≤1.65 is indicated by four stars (****))”. Further, the EC (1.5-fold increase) in assay [2] was less than 0.1 µM.
Turning to `COc1ccc(-c2cc(=O)n3cc(C4C[C@H]5CC[C@@H](C4)N5C)ccc3n2)cc1OC` (stereo partly drawn) [Compound 320, 2-(3,4-dimethoxyphenyl)-7-[(1R,5S)-8-methyl-8-azabicyclo[3.2.1]oct-3-yl]-4H-pyrido[1,2-a]pyrimidin-4-one], in assay [1], the “EC1.5x for Smn protein expression” value was “** (an EC1.5× between >1 μM and ≤3 μM is indicated by two stars (**))”; the “maximum fold (Fold) increase” value is “**** (a fold increase between >1.5 and ≤1.65 is indicated by four stars (****))”. Also, the EC (1.5-fold increase) in assay [2] lay within 0.3 to 1 µM.
As for `CCNC1CCN(c2cc(C)c3nc(-c4ccc(OC)c(OC)c4)cc(=O)n3c2)CC1` [Compound 359], in assay [1], the “EC1.5x for Smn protein expression” value was “** (an EC1.5× between >1 μM and ≤3 μM is indicated by two stars (**))”; the “maximum fold (Fold) increase” value is “*** (a fold increase between >1.35 and ≤1.5 is indicated by three stars (***))”. Moreover, the EC (1.5-fold increase) in assay [2] is less than 0.1 µM.
Regarding `Cc1cn2nc(-c3cc(=O)n4cc(C5CCNCC5)ccc4n3)cc2c(C)n1` [Compound 452, 2-(4,6-dimethylpyrazolo[1,5-a]pyrazin-2-yl)-7-(piperidin-4-yl)-4H-pyrido[1,2-a]pyrimidin-4-one], in assay [1], the “EC1.5x for Smn protein expression” value was “**** (an EC1.5x≤0.3 μM is indicated by four stars (****))” and the “maximum fold (Fold) increase” value was “***** (a fold increase >1.65 is indicated by five stars (*****))”. Besides, the EC (1.5-fold increase) in assay [2] is less than 0.1 µM.
As for `COc1cc(-c2cc(=O)n3cc(N4CCNCC4)ccc3n2)cc(F)c1OC` [Compound 145, 2-(3-fluoro-4,5-dimethoxyphenyl)-7-(piperazin-1-yl)-4H-pyrido[1,2-a]pyrimidin-4-one], the “maximum fold (Fold) increase” value in assay [1] is on record as “* (A maximum fold increase of ≤1.2 is indicated by one star (*))”. Also, the EC (1.5-fold increase) in assay [2] fell in the range of 1 to 3 µM.
In the case of `Cc1nc2cc(-c3cc(=O)n4cc(N5C[C@H]6CNC[C@H]6C5)ccc4n3)ccc2s1` [Compound 349, 7-[(3aR,6aS)-hexahydropyrrolo[3,4-c]pyrrol-2(1H)-yl]-2-(2-methyl-1,3-benzothiazol-5-yl)-4H-pyrido[1,2-a]pyrimidin-4-one], in assay [1], the “EC1.5x for Smn protein expression” value is “** (an EC1.5× between >1 μM and ≤3 μM is indicated by two stars (**))”; the “maximum fold (Fold) increase” value is “*** (a fold increase between >1.35 and ≤1.5 is indicated by three stars (***))”. The EC (1.5-fold increase) in assay [2] is less than 0.1 µM.
For `O=c1cc(-c2cc(F)cc(C(F)(F)F)c2)nc2ccc(N3CCNCC3)cn12` [Compound 76, 2-[3-fluoro-5-(trifluoromethyl)phenyl]-7-(piperazin-1-yl)-4H-pyrido[1,2-a]pyrimidin-4-one], in assay [1], the “maximum fold (Fold) increase” value was “** (a fold increase between >1.2 and ≤1.35 is indicated by two stars (**))”. The EC (1.5-fold increase) in assay [2] lay in the range of 0.3 to 1 µM.
Turning to `Cc1cc(N2CCN[C@H](C)C2)cn2c(=O)cc(-c3ccc4nn(C)cc4c3)nc12` [Compound 755, 9-methyl-2-(2-methyl-2H-indazol-5-yl)-7-[(3R)-3-methylpiperazin-1-yl]-4H-pyrido[1,2-a]pyrimidin-4-one], in assay [1], the “EC1.5x for Smn protein expression” value was “**** (an EC1.5x≤0.3 μM is indicated by four stars (****))” and the “maximum fold (Fold) increase” value is recorded as “***** (a fold increase >1.65 is indicated by five stars (*****))”. Besides, in assay [2], the EC (1.5-fold increase) was less than 0.1 µM.
